{"source": "patent US4895937A", "about": "“5-ioso-2-pyrimidinone nucleoside” (The Research Foundation of State University of New York, priority 1988, dated 1990)", "key": {"[1]": {"system": "host cell", "settings": "literature, Oftebro et al., Oyen et al.; cited from earlier work"}, "[2]": {"system": "human nasopharyngeal carcinoma KB cells", "experiment": "Cytotoxicity / cell proliferation in KB cells (Example 8 Part B)", "assay_type": "cell-based", "method": "(§1) To compare the toxicity of FPdR and IPdR human nasopharyngeal carcinoma KB cells obtained from the American Type Culture Collection were maintained as a monolayer in RPMI 1640 supplemented with 5% fetal bovine serum, 10 mM HEPES buffer (pH 7.4) and karamycin (100 μg/ml). Cells were maintained at 37° C. in a humidified atmosphere of 5% CO2 in air. Cell numbers were determined with an electronic particle counter (Particle Data, Inc., Elmhurst, Ill.).\n(§2) For determination of drug effect on cell proliferation, cells were harvested from rapidly proliferting cultures by treatment with pancreation. Cell number was determined and plated in 24 well (6 mm well diameter) plates at a concentratin of 5×10^3 cells/ml. Drug exposures were initiated by a complete change of medium after overnight incubation. Following a 72 hour drug exposure […]. of thiazolyl blue was added and incubated for a further 4 hour period. The media from the plates was aspirated completely and […] DMSO was added to each well. The plates were placed on a shaker for 5 minutes and the blue solution transferred to 96 well plates and read at 540 nm with a scanning multiwell spectrophotometer (Biotek Instruments, Inc. Burlington, Vt.)."}, "[3]": {"experiment": "Cytotoxicity / cell proliferation in KB cells (Example 8 Part B)", "assay_type": "cell-based, human", "settings": "human, kb cells, 72 hour exposure", "method": "as §1, §2"}, "[4]": {"system": "virus", "settings": "literature; cited from earlier work"}, "[5]": {"system": "HSV-2 (strain 333)", "experiment": "Antiviral activity, HSV-2 plaque reduction (Example 8 Part A)", "assay_type": "cell-based", "method": "The effects of 1-(2-Deoxy-β-D-ribofuranosyl)-5-iodo-2-pyrimidinone (IPdR) of Example 3 were compared with 1-(2-Deoxy-β-D-ribofuranosyl)-5-fluoro-2-pyrimidinone (FPdR) on HSV-2 (strain 333) in […]. Twenty four well plates (sterile) were plated with 10^6 Vero cells/well the day before infecting. 250 PFU of HSV-2 were used in each well. The test compounds, IPdR and FPdR, were added at zero times of post infection and the cultures incubated at 37° C. for 48 hours. At the end of the incubation period the media was removed from Vero cells. Plates were strained with 0.8% crystal violet in 50% ethanol for 15 minutes. The plaque was counted."}, "[6]": {"system": "nucleotidases", "settings": "systemic administration; cited from earlier work"}, "[7]": {"system": "herpatic lesions of the skin", "settings": "topical; cited from earlier work"}, "[8]": {"settings": "intravenous injection; cited from earlier work"}, "[9]": {"system": "bone marrow", "settings": "cited from earlier work"}, "[10]": {"system": "HSV-1", "experiment": "Viral inhibition, HSV-1 (Example 7, method of Example 5)", "assay_type": "cell-based, herpes simplex type 1", "settings": "Human alphaherpesvirus 1", "method": "(§3) In accordance with the present invention, 1-(2-Deoxy-β-D-ribofuranosyl)-5-(methylmercapto)-2-pyrimidinone is prepared essentially in accordance with the procedure set forth in \"Snythesis and Antiviral Activity of 1-(2-Deoxy-β-D-ribofuranosyl)-5-(methylmercapto)-2-pyrimidinone\" by Schroeder and Bardos and Cheng, Volume 24, page 109, January 1981. HeLa cells were infected in 1640 RPMI medium with herpes simplex type 1 (HSV-1) and independently with herpes simplex type 2 (HSV-2) virus at a multiplicity of 5 to 10 plaque forming units per cell. The composition of 1640 RPMI medium is reported in \"Biological Activity of 5 Ethyl, 5 Propyl, and 5 Vinyl 2'-Deoxyuridine\" by Cheng et al published in Antimicrobial Agents and Chemotherapy, Volume 10, beginning at page 119 (1976). 1640 RPMI medium is commercially available from Gibco Company, Grand Island, N.Y. After 1 hour, virus absorption, the drugs were added. Resulting cultures were analyzed for virus titer at 24 hours post infection a described in the procedure set forth in \"Biological Activity of 5-Ethyl, 5-Propyl and 5-Vinyl 2'-uridine\" by Cheng et al. The results are set forth in Table 2. The numbers set forth in Table 2 show the number of plaque forming units in the control which contained no methylmercapto compound and the number of units at concentrations of 100, 200 and 400 micromoles of the methylmercapto compound. The results clearly indicate substantial decrease in the number of plaque forming units in the presence of 1-(2-Deoxy-β-D-ribofuranosyl)-5-(methylmercapto)-2-pyrimidinone.\n(§4) The above described methyl compound was tested for viral inhibition substantially in accordance with the method of Example 5 except that the concentrations were 50 and 100 micromolar."}, "[11]": {"molecular_target": "thymidine kinase extracted from Varicella zoster virus infected cells (Human herpesvirus 3 strain Dumas, UniProt P09250)", "sequence (P09250 whole entry, looked up)": "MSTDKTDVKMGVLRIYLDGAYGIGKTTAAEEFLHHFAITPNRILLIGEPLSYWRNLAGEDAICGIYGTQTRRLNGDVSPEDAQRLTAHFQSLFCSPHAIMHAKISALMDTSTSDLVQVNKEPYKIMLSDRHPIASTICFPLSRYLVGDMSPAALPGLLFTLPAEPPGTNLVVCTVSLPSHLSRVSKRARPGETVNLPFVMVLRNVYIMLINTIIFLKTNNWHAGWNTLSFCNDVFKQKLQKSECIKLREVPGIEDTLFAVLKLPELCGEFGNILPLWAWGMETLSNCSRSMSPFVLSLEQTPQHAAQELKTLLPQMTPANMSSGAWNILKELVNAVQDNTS", "experiment": "Binding affinity with thymidine kinase from Varicella zoster virus infected cells (Example 6)", "method": "(§5) The methylmercapto composition, as described in Example 5. was tested for binding affinity with thymidine kinase from various sources. Viruses which induce the production of thymidine kinase, induce thymidine kinase specific to the virus. […] It is believed that the compound of the invention, in order to become active in inhibiting the replication of the virus, must become phosphorylated. For such phosphorylation to occur, the thymidine kinase must first bind to the compound. Since binding with thymidine kinase produced by the virus is much more efficient and effective than binding with thymidine kinase from other sources, phosphorylation of the compound occurs more rapidly in the presence of active viruses producing thymidine kinase. The compound, activated by phosphorylation, then is able to interfere with replication of the virus."}, "[12]": {"system": "HSV-2", "experiment": "Viral inhibition, HSV-2 (Example 7, method of Example 5)", "assay_type": "cell-based, herpes simplex type 2", "settings": "Human alphaherpesvirus 2", "method": "as §3, §4"}, "[13]": {"system": "HSV-2 (333)", "experiment": "Virus titer in HSV-2 infected HeLa cells, 24 hours post infection (Example 5)", "assay_type": "cell-based, herpes simplex type 2", "settings": "control 1.2 × 10^7", "method": "as §3"}, "[14]": {"molecular_target": "thymidine kinase extracted from cells infected with herpes simplex 1 virus (Human alphaherpesvirus 1 strain 17, UniProt P0DTH5)", "sequence (P0DTH5 whole entry)": "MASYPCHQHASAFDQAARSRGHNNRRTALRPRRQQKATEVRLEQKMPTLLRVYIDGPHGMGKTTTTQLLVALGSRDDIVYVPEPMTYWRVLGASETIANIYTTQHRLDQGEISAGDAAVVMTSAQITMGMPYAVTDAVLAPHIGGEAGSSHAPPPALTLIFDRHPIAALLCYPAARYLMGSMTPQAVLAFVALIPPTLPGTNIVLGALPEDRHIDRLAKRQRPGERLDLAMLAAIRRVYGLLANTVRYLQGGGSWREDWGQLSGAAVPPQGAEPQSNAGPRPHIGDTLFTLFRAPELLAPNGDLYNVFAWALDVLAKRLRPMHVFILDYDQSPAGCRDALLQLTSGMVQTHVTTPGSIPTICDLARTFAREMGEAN", "experiment": "Binding affinity with thymidine kinase extracted from cells infected with herpes simplex 1 virus (Example 6)", "settings": "herpes simplex 1 virus infected cells", "method": "as §5"}, "[15]": {"system": "thymidine kinase extracted from human cells", "experiment": "Binding affinity with thymidine kinase extracted from human cells (Example 6)", "method": "as §5"}, "[16]": {"system": "HSV-1(Kos)", "experiment": "Virus titer in HSV-1 infected HeLa cells, 24 hours post infection (Example 5)", "assay_type": "cell-based, herpes simplex type 1", "settings": "control 1.5 × 10^7", "method": "as §3"}, "[17]": {"settings": "50 micromolar, vs untreated control"}}, "note": "Read-outs that look alike come from different tables or passages of the source.", "data": [{"smiles": "O=c1ncc(F)cn1[C@H]1C[C@H](O)[C@@H](CO)O1", "note": "[FPdR, 1-(2-Deoxy-β-D-ribofuranosyl)-5-fluoro-2-pyrimidinone]", "values": [{"measurement": "toxicity to the host cell versus virus", "setting": "[1]", "value": "more toxic to the host cell than to the virus"}, {"measurement": "toxicity against the host cells", "setting": "[2]", "value": "significantly greater than IPdR"}, {"measurement": "toxicity against the host cells", "setting": "[2]; listed as 5-fluoro deoxyriboside", "value": "more toxic to the host than to the virus"}, {"measurement": "activity at 72 h, 1 µM", "setting": "[3]; 1.0 μm, read-out: % Growth", "value": 102, "unit": "%"}, {"measurement": "activity at 72 h, 10 µM", "setting": "[3]; 10 μm, read-out: % Growth", "value": 84, "unit": "%"}, {"measurement": "activity at 72 h, 25 µM", "setting": "[3]; 25 μm, read-out: % Growth", "value": 49, "unit": "%"}, {"measurement": "activity at 72 h, 50 µM", "setting": "[3]; 50 μm, read-out: % Growth", "value": 21, "unit": "%"}, {"measurement": "IC50 at 72 h", "setting": "[3]; cytotoxicity, read-out: ID50", "value": 25, "unit": "µM"}, {"measurement": "anti-viral activity", "setting": "[4]", "value": "exhibiting anti-viral activity"}, {"measurement": "antiviral activity, comparison of IPdR and FPdR", "setting": "[5]", "value": "comparable in antiviral activity"}, {"measurement": "inhibition at 100 µM", "setting": "[5]; Human alphaherpesvirus 2, Vero, 100 μM, 48 hours", "value": 50.5, "unit": "%"}]}, {"smiles": "O=c1[nH]c(=O)n([C@H]2C[C@H](O)[C@@H](CO)O2)cc1I", "note": "[idoxuridine, 5-iodo-2'-deoxyuridine]", "values": [{"measurement": "inactivation by nucleotidases", "setting": "[6]", "value": "rapidly inactivated by nucleotidases"}, {"measurement": "response of herpatic lesions of the skin", "setting": "[7]", "value": "do not respond"}, {"measurement": "disappearance of most of the active form from the blood", "setting": "[8]", "value": "about thirty"}, {"measurement": "toxicities upon systemic administration", "setting": "[9]", "value": "bone marrow depression"}]}, {"smiles": "CSc1cnc(=O)n([C@H]2C[C@H](O)[C@@H](CO)O2)c1", "note": "[methylmercapto compound, 1-(2-Deoxy-β-D-ribofuranosyl)-5-(methylmercapto)-2-pyrimidinone]", "values": [{"measurement": "inhibition at 50 µM", "setting": "[10]; [17]", "value": 41.1, "unit": "%"}, {"measurement": "inhibition at 100 µM", "setting": "[10]; 100 micromolar", "value": 83.8, "unit": "%"}, {"measurement": "binding affinity with thymidine kinase", "setting": "[11]", "value": "great binding affinity"}, {"measurement": "inhibition at 50 µM", "setting": "[12]; [17]", "value": 57.2, "unit": "%"}, {"measurement": "inhibition at 100 µM", "setting": "[12]; 100 micromolar", "value": 79.3, "unit": "%"}, {"measurement": "plaque-forming units/mL, HSV-2 (333)", "setting": "[13]; 100 μM", "value": "1.3 × 10^7 plaque-forming units/mL"}, {"measurement": "plaque-forming units/mL, HSV-2 (333)", "setting": "[13]; 200 μM", "value": "3.1 × 10^6 plaque-forming units/mL"}, {"measurement": "plaque-forming units/mL, HSV-2 (333)", "setting": "[13]; 400 μM", "value": "3.2 × 10^5 plaque-forming units/mL"}, {"measurement": "binding affinity with thymidine kinase", "setting": "[14]", "value": "great binding affinity"}, {"measurement": "binding affinity with thymidine kinase", "setting": "[15]", "value": "little binding affinity"}, {"measurement": "plaque-forming units/mL, HSV-1(Kos)", "setting": "[16]; 100 μM", "value": "6.4 × 10^7 plaque-forming units/mL"}, {"measurement": "plaque-forming units/mL, HSV-1(Kos)", "setting": "[16]; 200 μM", "value": "1.7 × 10^6 plaque-forming units/mL"}, {"measurement": "plaque-forming units/mL, HSV-1(Kos)", "setting": "[16]; 400 μM", "value": "3.4 × 10^5 plaque-forming units/mL"}]}]}
